Laboratory results taken from US20250122257A1, “USE OF KININ OR DERIVATIVE THEREOF IN TREATING VCI, PSCI, OR CSVD” (ZonHon Biopharma Institute, Inc., priority 2022, published 2025).
Read-outs that look alike come from different tables or passages of the source. Square brackets hold non-standard residues; d marks the D form. Ends that are not written are not given here. Peptide text beside a SMILES is read from it. 2Thi = N[C@@H](Cc1cccs1)C(=O)O

How the values were obtained:
[1] = in vivo, cited from earlier work
[2] = test system: B2 receptor downstream signals p-CREB and p-ERK1/2; experiment: Phosphorylation of downstream ERK1/2 and CREB by WB in CHO-K1 (B2R+) cells; type: cell-based; conditions: FIG. 3, WB
Protocol: (§1) In vitro B2-receptor affinity activity and activity of activating downstream signaling pathway of PEG conjugates of lysyl bradykinin and its variants were tested, as in Example 3.

B2 receptor = target: T1, B2 receptor (Homo sapiens, UniProt P30411); experiment: Affinity activity to B2 receptor, reporter gene assay in B2-NFAT-CHO-K1 cells; type: cell-based; conditions: relative activity calculated from EC50, 5 hours
T1 construct: expressed in transfected cells
T1 sequence (P30411 1-391): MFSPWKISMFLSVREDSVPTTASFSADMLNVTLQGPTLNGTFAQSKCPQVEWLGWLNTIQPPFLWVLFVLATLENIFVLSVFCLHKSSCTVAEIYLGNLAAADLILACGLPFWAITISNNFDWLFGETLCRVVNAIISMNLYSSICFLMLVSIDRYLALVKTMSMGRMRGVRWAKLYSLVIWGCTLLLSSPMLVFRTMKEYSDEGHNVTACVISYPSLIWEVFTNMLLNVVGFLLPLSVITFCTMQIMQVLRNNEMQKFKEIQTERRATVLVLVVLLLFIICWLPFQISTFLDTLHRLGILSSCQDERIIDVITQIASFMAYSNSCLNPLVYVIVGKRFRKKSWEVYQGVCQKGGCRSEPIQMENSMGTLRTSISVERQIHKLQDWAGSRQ
Protocol: The cell line B2-NFAT-CHO-K1 stably transfected with B2 receptor reporter gene was constructed based on CHO-K1 host cells and the cell library was constructed. The B2-NFAT-CHO-K1 cell library was used to evaluate the binding activity of lysyl bradykinin/bradykinin or its variants or PEG modified products to B2 receptor in vitro.
Detection methods: The cells were cultured in 96-well plates at 5×10^4cells/well, 37° C., 5% CO2 for 16-20 hours, and then gradient diluted standard and test solutions were added. After 5 hours, added Bio-Lite luciferase detection reagent and the chemiluminescence intensity was measured. GraphPad was used to make four-parameter equation curve and calculate the relative activity according to the EC50 value.
as §1

Relative affinity activity to B2 receptor (B2 receptor) [%]	Molecule	other results
0	Lys-BKm10: SPFR, SEQ ID NO 11	–
0	Lys-BKm09: {THI}SPFR, SEQ ID NO 10 ([2Thi]SPFR)	–

Second part, the molecule before the results:

Molecule	Relative affinity activity to B2 receptor (B2 receptor) [%]	other results
NC(N)=NCCC[C@H](NC(=O)[C@H](Cc1ccccc1)NC(=O)[C@@H]1CCCN1C(=O)[C@H](CO)NC(=O)[C@H](Cc1ccccc1)NC(=O)CNC(=O)[C@@H]1CCCN1C(=O)[C@@H]1CCCN1C(=O)[C@@H](N)CCCN=C(N)N)C(=O)O [BK, bradykinin] (H-RPPGFSPFR-OH)	–	Half-life ([1]; reported): only seconds
Lys-BKm13-SPA5K: Lys-BKm13 modified with SPA5K PEG (CRRPPG[2Thi]SPFR; also: modified with SPA5K PEG, site not given here)	–	Activity of PEG conjugates in activating phosphorylation of ERK1/2 and CREB (in words) [2]: highest activity among different peptide variants
Lys-BKm08: PG{THI}SPFR, SEQ ID NO 9 (PG[2Thi]SPFR)	<10	–
NCCCC[C@H](N)C(=O)N[C@@H](CCCN=C(N)N)C(=O)N1CCC[C@H]1C(=O)N1CCC[C@H]1C(=O)NCC(=O)N[C@@H](Cc1ccccc1)C(=O)N[C@@H](CO)C(=O)N1CCC[C@H]1C(=O)N[C@@H](Cc1ccccc1)C(=O)N[C@@H](CCCN=C(N)N)C(=O)O [Lys-BK, lysyl bradykinin]	–	Half-life [1]: only seconds
